According to patent US20230053540A1, “TREATMENT OF LIVER INJURY” (Massachusetts Institute of Technology, priority 2019, published 2023):

System: hepatocytes
Assay: Seq-Well scRNA-Seq of hepatocytes after APAP overdose (signature scores, DEG vs untreated)
Format: in vivo, mouse
Settings: A6 vs UT

SMILES: CC(=O)Nc1ccc(O)cc1 [APAP, acetaminophen]
- Slc25a10 avg_logFC: −0.2828
- Slc25a10 pct.1: 0.351
- Slc25a47 avg_logFC: 0.4289
- Slc25a51 A6logFC: 0.264
- Slc25a51 avg_logFC: 0.264
- Slc25a51 pct.1: 0.308
- Slc26a1 A6logFC: −0.2817
- Slc26a1 avg_logFC: −0.2817
- Slc26a1 pct.1: 0.329
- Slc30a1 A6logFC: 0.2506
- Slc30a1 avg_logFC: 0.2506
- Slc30a1 pct.1: 0.346
- Slc35d1 A6logFC: 0.3094
- Slc35d1 avg_logFC: 0.3094
- Slc35d1 pct.1: 0.489
- Slc38a3 avg_logFC: −0.4098
- Slc38a3 pct.1: 0.663
- Slc39a14 avg_logFC: 1.013
- Slc40a1 avg_logFC: 0.467
- Slc40a1 pct.1: 0.456
- Slirp A6logFC: −0.3085
- Smoc1 A6logFC: 0.2616
- Smoc1 avg_logFC: 0.2616
- Smoc1 pct.1: 0.368
- Snx10 A6logFC: 0.2856
- Snx10 avg_logFC: 0.2856
- Snx10 pct.1: 0.341
- Sod1 avg_logFC: −0.4393
- Son avg_logFC: 0.5429
- Son pct.1: 0.601
- Sord avg_logFC: −0.3836
- Sord pct.1: 0.754
- Spag9 A6logFC: 0.3188
- Spag9 avg_logFC: 0.3188
- Spag9 pct.1: 0.415
- Spcs1 A6logFC: −0.2629
- Spcs1 avg_logFC: −0.2629
- Spcs1 pct.1: 0.236
- Spp2 avg_logFC: −0.3821
- Spp2 pct.1: 0.334
- Spred1 avg_logFC: 0.3884
- Spred1 pct.1: 0.308
- Sptan1 A6logFC: 0.3127
- Sptan1 avg_logFC: 0.3127
- Sptan1 pct.1: 0.348
- Sptbn1 avg_logFC: 0.4227
- Sptbn1 pct.1: 0.439
- Sqstm1 avg_logFC: 0.7432
- Srd5a1 A6logFC: −0.2773
- Srd5a1 avg_logFC: −0.2773
- Srd5a1 pct.1: 0.308
- Srgn avg_logFC: 0.9341
- Srrm2 A6logFC: 0.3282
- Srrm2 avg_logFC: 0.3282
- Srrm2 pct.1: 0.456
- Srxn1 avg_logFC: 1.878
- Ssr4 avg_logFC: −0.5076
- Ssr4 pct.1: 0.413
- St3gal1 avg_logFC: 0.5287
- St3gal4 A6logFC: 0.275
- St3gal4 avg_logFC: 0.275
- St3gal4 pct.1: 0.368
- St3gal5 avg_logFC: 0.6076
- Stard10 avg_logFC: −0.3383
- Stard10 pct.1: 0.876
- Stat3 avg_logFC: 0.7154
- Stbd1 A6logFC: −0.2732
- Steap4 avg_logFC: 0.4372
- Steap4 pct.1: 0.37
- Stk40 avg_logFC: 0.5364
- Suco A6logFC: 0.251
- Suco avg_logFC: 0.251
- Suco pct.1: 0.26
- Sult1a1 avg_logFC: 0.319
- Sult1a1 pct.1: 0.685
- Supt6 A6logFC: 0.2913
- Supt6 avg_logFC: 0.2913
- Supt6 pct.1: 0.291
- Swi5 A6logFC: −0.2621
- Swi5 avg_logFC: −0.2621
- Swi5 pct.1: 0.341
- Syncrip A6logFC: 0.2748
- Syncrip avg_logFC: 0.2748
- Syncrip pct.1: 0.365
- Tab2 A6logFC: 0.3484
- Tab2 avg_logFC: 0.3484
- Tab2 pct.1: 0.425
- Tacc2 avg_logFC: 0.3293
- Tacc2 pct.1: 0.289
- Tars avg_logFC: 0.4921
- Tars pct.1: 0.666
- Tatdn2 avg_logFC: 0.3733
- Tatdn2 pct.1: 0.334
- Tbc1d15 avg_logFC: 0.4886
- Tbc1d15 pct.1: 0.461
- Tbca A6logFC: −0.2726
- Tbca avg_logFC: −0.2726
- Tbca pct.1: 0.284
- Tcerg1 avg_logFC: 0.3575
- Tcerg1 pct.1: 0.305
- Tfpi2 avg_logFC: −0.3663
- Tfpi2 pct.1: 0.155
- Timm13 avg_logFC: −0.433
- Timm13 pct.1: 0.418
- Tiparp avg_logFC: 0.5456
- Tjp2 avg_logFC: 0.4115
- Tjp2 pct.1: 0.332
- Tln1 A6logFC: 0.321
- Tln1 avg_logFC: 0.321
- Tln1 pct.1: 0.31
- Tm4sf4 avg_logFC: 0.5126
- Tm4sf4 pct.1: 0.484
- Tmed5 avg_logFC: 0.4016
- Tmed5 pct.1: 0.594
- Tmem14c avg_logFC: −0.3685
- Tmem14c pct.1: 0.332
- Tmem37 A6logFC: −0.2822
- Tmem86b A6logFC: −0.2582
- Tmem87b avg_logFC: 0.4344
- Tmem87b pct.1: 0.351
- Tmem147 A6logFC: 0.2838
- Tmem150a A6logFC: −0.2535
- Tmem160 A6logFC: −0.339
- Tmem205 avg_logFC: −0.7747
- Tmem242 A6logFC: −0.2725
- Tmem256 avg_logFC: −0.5185
- Tmem256 pct.1: 0.375
- Tmem258 A6logFC: −0.2769
- Tmprss6 A6logFC: −0.2802
- Tmprss6 avg_logFC: −0.2802
- Tmprss6 pct.1: 0.551
- Tmsb4x avg_logFC: 0.7806
- Tnfrsf1a avg_logFC: 0.5996
- Tnfrsf12a avg_logFC: 1.118
- Tnks2 A6logFC: 0.3176
- Tns1 avg_logFC: 0.4349
- Tns1 pct.1: 0.403
- Tpi1 A6logFC: −0.2616
- Tpi1 avg_logFC: −0.2616
- Tpi1 pct.1: 0.539
- Tpr A6logFC: 0.4409
- Tra2a avg_logFC: 0.7123
- Trf avg_logFC: −0.2619
- Trf pct.1: 0.988
- Trib1 avg_logFC: 0.3317
- Trib1 pct.1: 0.411
- Trip11 A6logFC: 0.3479
- Trip11 avg_logFC: 0.3479
- Trip11 pct.1: 0.341
- Trp53inp1 avg_logFC: 1.008
- Tsc22d1 A6logFC: −0.2997
- Tsc22d2 avg_logFC: 0.3911
- Tsc22d2 pct.1: 0.353
- Tsku avg_logFC: 0.3676
- Tsku pct.1: 0.327
- Tspan31 A6logFC: −0.2959
- Tspan31 avg_logFC: −0.2959
- Tspan31 pct.1: 0.415
- Tspo A6logFC: −0.3157
- Tsr1 avg_logFC: 0.3603
- Tsr1 pct.1: 0.341
- Ttc36 avg_logFC: −0.6606
- Ttr avg_logFC: −0.5306
- Tubb2a avg_logFC: 0.7494
- Tubb6 avg_logFC: 0.5767
- Tyrobp avg_logFC: 0.4666
- Ubb A6logFC: −0.275
- Ubc avg_logFC: −0.6618
- Ubr4 A6logFC: 0.3301
- Ubr4 avg_logFC: 0.3301
- Ubr4 pct.1: 0.411
- Ubr5 A6logFC: 0.3057
- Ubr5 avg_logFC: 0.3057
- Ubr5 pct.1: 0.399
- Ugdh avg_logFC: 0.6331
- Ugt2b5 avg_logFC: −0.6034
- Ugt2b36 avg_logFC: −0.5834
- Ugt3a2 A6logFC: −0.2586
- Ugt3a2 avg_logFC: −0.2586
- Ugt3a2 pct.1: 0.492
- Uhrf1bp1l avg_logFC: 0.4198
- Uhrf1bp1l pct.1: 0.399
- Uox avg_logFC: −0.5531
- Upp2 avg_logFC: −0.6903
- Uqcr10 avg_logFC: −0.4519
- Uqcr10 pct.1: 0.561
- Uqcr11 avg_logFC: −0.6031
- Uqcrb avg_logFC: −0.4084
- Uqcrb pct.1: 0.425
- Uqcrh avg_logFC: −0.4292
- Uqcrh pct.1: 0.589
- Urah avg_logFC: −0.7641
- Usp4 avg_logFC: 0.28
- Usp4 pct.1: 0.439
- Usp7 A6logFC: 0.2873
- Usp7 avg_logFC: 0.2873
- Usp7 pct.1: 0.363
- Usp9x avg_logFC: 0.3184
- Usp9x pct.1: 0.451
- Usp34 A6logFC: 0.2859
- Usp34 avg_logFC: 0.2859
- Usp34 pct.1: 0.37
